Test results from ChEMBL document CHEMBL3885861, “Open TG-GATES”.

Organism: Rattus norvegicus
Test: Open TG-GATES - Regimen: Daily Repeat
Assay type: toxicity, organism-based, Sprague-Dawley
Parameters: regimen Daily Repeat, gender Male, age 6 weeks
Settings: in vivo, sc, 0.02 mg/kg, route subcutaneous injection, dose 20 ug/Kg, dose level Middle; for APTT / Bas / Eos / Fbg / Hb / Ht / Lym / MCH / MCHC / MCV / Mono / Neu / PT / Plat / RBC / Ret / WBC: tissue Blood; for KIDNEY_L / KIDNEY_R / KIDNEY_TOTAL: tissue Kidney; for LIVER: tissue Liver; for A/G / ALP / ALT / AST / BUN / CRE / Ca / Cl / DBIL / GLC / IP / K / LDH / Na / PL / RALB / TBIL / TC / TG / TP / gamma-GTP: tissue Plasma

With `CC(=O)O.N=C(N)NCCC[C@@H](NC(=O)[C@@H]1CCCN1C(=O)[C@@H]1CSSCCC(=O)N[C@@H](Cc2ccc(O)cc2)C(=O)N[C@@H](Cc2ccccc2)C(=O)N[C@@H](CCC(N)=O)C(=O)N[C@@H](CC(N)=O)C(=O)N1)C(=O)NCC(N)=O` [DESMOPRESSIN ACETATE] the TERMINAL_BW (72 h, time 3 day) was 235.6 g, the APTT (72 h, time 3 day) was 16.2 s and the Bas (72 h, time 3 day) was 0%. For the same compound, the Eos (72 h, time 3 day) was 1%, the Fbg (72 h, time 3 day) was 270.4 mg/dL and the Hb (72 h, time 3 day) was 13.3 g/dL. The Ht (72 h, time 3 day) was 40.4%, the Lym (72 h, time 3 day) was 69.8% and the MCH (72 h, time 3 day) was 21.6 pg. It also gave an MCHC (72 h, time 3 day) of 32.8%, an MCV (72 h, time 3 day) of 65.8 fL and a Mono (72 h, time 3 day) of 8.6%. The Neu (72 h, time 3 day) was 20.6%, the PT (72 h, time 3 day) was 11.8 s and the Plat (72 h, time 3 day) was 123.6 x10_4/uL. The RBC (72 h, time 3 day) was 613.8 x10_4/ul, the Ret (72 h, time 3 day) was 8% and the WBC (72 h, time 3 day) was 99.6 x10_2/uL. It also gave a KIDNEY_L (72 h, time 3 day) of 1.1 g, a KIDNEY_R (72 h, time 3 day) of 1.1 g and a KIDNEY_TOTAL (72 h, time 3 day) of 2.2 g. It also gave an LIVER (72 h, time 3 day) of 10.9 g, an A/G (72 h, time 3 day) of 2 and an ALP (72 h, time 3 day) of 1305 IU/L. For the same compound, the ALT (72 h, time 3 day) was 39 IU/L, the AST (72 h, time 3 day) was 72.8 IU/L and the BUN (72 h, time 3 day) was 16.2 mg/dL. It also gave a CRE (72 h, time 3 day) of 0.4 mg/dL, a Ca (72 h, time 3 day) of 11.4 mg/dL and a Cl (72 h, time 3 day) of 103 meq/L. For the same compound, the DBIL (72 h, time 3 day) was 0.012 mg/dL, the GLC (72 h, time 3 day) was 193 mg/dL and the IP (72 h, time 3 day) was 7.9 mg/dL. For the same compound, the K (72 h, time 3 day) was 5.3 meq/L, the LDH (72 h, time 3 day) was 205.2 IU/L and the Na (72 h, time 3 day) was 135 meq/L. The PL (72 h, time 3 day) was 157.2 mg/dL, the RALB (72 h, time 3 day) was 3.8 g/dL and the TBIL (72 h, time 3 day) was 0.04 mg/dL. For the same compound, the TC (72 h, time 3 day) was 87.6 mg/dL, the TG (72 h, time 3 day) was 108.8 mg/dL and the TP (72 h, time 3 day) was 5.7 g/dL. For the same compound, the gamma-GTP (72 h, time 3 day) was 1 IU/L, the TERMINAL_BW ([…], time 7 day) was 276.7 g and the TERMINAL_BW ([…], time 14 day) was 325 g. The TERMINAL_BW ([…], time 28 day) was 428.4 g, the APTT ([…], time 7 day) was 16.6 s and the Bas ([…], time 7 day) was 0%. The Eos ([…], time 7 day) was 1.2%, the Fbg ([…], time 7 day) was 263.2 mg/dL and the Hb ([…], time 7 day) was 13 g/dL. For the same compound, the Ht ([…], time 7 day) was 39.8%, the Lym ([…], time 7 day) was 72.2% and the MCH ([…], time 7 day) was 20.8 pg. The MCHC ([…], time 7 day) was 32.7%, the MCV ([…], time 7 day) was 63.6 fL and the Mono ([…], time 7 day) was 6.8%. It also gave a Neu ([…], time 7 day) of 20%, a PT ([…], time 7 day) of 12.2 s and a Plat ([…], time 7 day) of 125.6 x10_4/uL. The RBC ([…], time 7 day) was 627 x10_4/ul, the Ret ([…], time 7 day) was 7.1% and the WBC ([…], time 7 day) was 114 x10_2/uL. The APTT ([…], time 14 day) was 17.5 s, the Bas ([…], time 14 day) was 0% and the Eos ([…], time 14 day) was 1.2%. The Fbg ([…], time 14 day) was 253.6 mg/dL, the Hb ([…], time 14 day) was 14.2 g/dL and the Ht ([…], time 14 day) was 43.2%. For the same compound, the Lym ([…], time 14 day) was 72%, the MCH ([…], time 14 day) was 20 pg and the MCHC ([…], time 14 day) was 32.8%. For the same compound, the MCV ([…], time 14 day) was 60.9 fL, the Mono ([…], time 14 day) was 10.6% and the Neu ([…], time 14 day) was 16.6%. For the same compound, the PT ([…], time 14 day) was 12.2 s, the Plat ([…], time 14 day) was 123.2 x10_4/uL and the RBC ([…], time 14 day) was 710.2 x10_4/ul. For the same compound, the Ret ([…], time 14 day) was 6%, the WBC ([…], time 14 day) was 101.6 x10_2/uL and the APTT ([…], time 28 day) was 16.7 s. It also gave a Bas ([…], time 28 day) of 0%, an Eos ([…], time 28 day) of 0.8% and a Fbg ([…], time 28 day) of 250 mg/dL. The Hb ([…], time 28 day) was 15 g/dL, the Ht ([…], time 28 day) was 46.3% and the Lym ([…], time 28 day) was 75.8%. It also gave an MCH ([…], time 28 day) of 19.3 pg, an MCHC ([…], time 28 day) of 32.5% and an MCV ([…], time 28 day) of 59.4 fL. It also gave a Mono ([…], time 28 day) of 6%, a Neu ([…], time 28 day) of 17.4% and a PT ([…], time 28 day) of 11.8 s. It also gave a Plat ([…], time 28 day) of 112 x10_4/uL, an RBC ([…], time 28 day) of 780.2 x10_4/ul and a Ret ([…], time 28 day) of 3.5%. It also gave a WBC ([…], time 28 day) of 128.4 x10_2/uL, a KIDNEY_L ([…], time 7 day) of 1.2 g and a KIDNEY_R ([…], time 7 day) of 1.2 g. The KIDNEY_TOTAL ([…], time 7 day) was 2.5 g, the KIDNEY_L ([…], time 14 day) was 1.3 g and the KIDNEY_R ([…], time 14 day) was 1.4 g. It also gave a KIDNEY_TOTAL ([…], time 14 day) of 2.7 g, a KIDNEY_L ([…], time 28 day) of 1.7 g and a KIDNEY_R ([…], time 28 day) of 1.7 g. The KIDNEY_TOTAL ([…], time 28 day) was 3.4 g, the LIVER ([…], time 7 day) was 12.1 g and the LIVER ([…], time 14 day) was 13.4 g. It also gave an LIVER ([…], time 28 day) of 16.1 g, an A/G ([…], time 7 day) of 2 and an ALP ([…], time 7 day) of 1103 IU/L. For the same compound, the ALT ([…], time 7 day) was 29.6 IU/L, the AST ([…], time 7 day) was 69.6 IU/L and the BUN ([…], time 7 day) was 15.4 mg/dL. For the same compound, the CRE ([…], time 7 day) was 0.4 mg/dL, the Ca ([…], time 7 day) was 13.4 mg/dL and the Cl ([…], time 7 day) was 100.2 meq/L. It also gave a DBIL ([…], time 7 day) of 0.01 mg/dL, a GLC ([…], time 7 day) of 201 mg/dL and an IP ([…], time 7 day) of 7.9 mg/dL. The K ([…], time 7 day) was 5.1 meq/L, the LDH ([…], time 7 day) was 160.2 IU/L and the Na ([…], time 7 day) was 130.8 meq/L. It also gave a PL ([…], time 7 day) of 138 mg/dL, an RALB ([…], time 7 day) of 3.6 g/dL and a TBIL ([…], time 7 day) of 0.042 mg/dL. For the same compound, the TC ([…], time 7 day) was 75.8 mg/dL, the TG ([…], time 7 day) was 95 mg/dL and the TP ([…], time 7 day) was 5.5 g/dL. For the same compound, the gamma-GTP ([…], time 7 day) was 1 IU/L, the A/G ([…], time 14 day) was 1.8 and the ALP ([…], time 14 day) was 1136 IU/L. The ALT ([…], time 14 day) was 29.4 IU/L, the AST ([…], time 14 day) was 68.2 IU/L and the BUN ([…], time 14 day) was 17.8 mg/dL. For the same compound, the CRE ([…], time 14 day) was 0.4 mg/dL, the Ca ([…], time 14 day) was 10.6 mg/dL and the Cl ([…], time 14 day) was 105.8 meq/L. For the same compound, the DBIL ([…], time 14 day) was 0.014 mg/dL, the GLC ([…], time 14 day) was 190.6 mg/dL and the IP ([…], time 14 day) was 7.3 mg/dL. The K ([…], time 14 day) was 5.3 meq/L, the LDH ([…], time 14 day) was 133.8 IU/L and the Na ([…], time 14 day) was 138.4 meq/L. It also gave a PL ([…], time 14 day) of 130.6 mg/dL, an RALB ([…], time 14 day) of 3.7 g/dL and a TBIL ([…], time 14 day) of 0.032 mg/dL. For the same compound, the TC ([…], time 14 day) was 65.2 mg/dL, the TG ([…], time 14 day) was 109.4 mg/dL and the TP ([…], time 14 day) was 5.7 g/dL. It also gave a gamma-GTP ([…], time 14 day) of 1 IU/L, an A/G ([…], time 28 day) of 1.6 and an ALP ([…], time 28 day) of 834.8 IU/L. For the same compound, the ALT ([…], time 28 day) was 27.4 IU/L, the AST ([…], time 28 day) was 65 IU/L and the BUN ([…], time 28 day) was 18 mg/dL. For the same compound, the CRE ([…], time 28 day) was 0.4 mg/dL, the Ca ([…], time 28 day) was 9.1 mg/dL and the Cl ([…], time 28 day) was 104.2 meq/L. It also gave a DBIL ([…], time 28 day) of 0.014 mg/dL, a GLC ([…], time 28 day) of 190 mg/dL and an IP ([…], time 28 day) of 6.7 mg/dL. For the same compound, the K ([…], time 28 day) was 4.9 meq/L, the LDH ([…], time 28 day) was 143.8 IU/L and the Na ([…], time 28 day) was 137.6 meq/L. It also gave a PL ([…], time 28 day) of 135.2 mg/dL, an RALB ([…], time 28 day) of 3.7 g/dL and a TBIL ([…], time 28 day) of 0.048 mg/dL. The TC ([…], time 28 day) was 69.4 mg/dL, the TG ([…], time 28 day) was 107.8 mg/dL and the TP ([…], time 28 day) was 6.1 g/dL. The gamma-GTP ([…], time 28 day) was 0.4 IU/L.
